Measured values reported in the Kinase Knowledgebase extract (Sharma et al. 2016).

Each compound was assayed against MAPK14 (human) (UniProt Q16539) (assay: Inhibition of MAPK14 Kinase Activity).
MAPK14 (human), sequence (Q16539 whole entry, looked up): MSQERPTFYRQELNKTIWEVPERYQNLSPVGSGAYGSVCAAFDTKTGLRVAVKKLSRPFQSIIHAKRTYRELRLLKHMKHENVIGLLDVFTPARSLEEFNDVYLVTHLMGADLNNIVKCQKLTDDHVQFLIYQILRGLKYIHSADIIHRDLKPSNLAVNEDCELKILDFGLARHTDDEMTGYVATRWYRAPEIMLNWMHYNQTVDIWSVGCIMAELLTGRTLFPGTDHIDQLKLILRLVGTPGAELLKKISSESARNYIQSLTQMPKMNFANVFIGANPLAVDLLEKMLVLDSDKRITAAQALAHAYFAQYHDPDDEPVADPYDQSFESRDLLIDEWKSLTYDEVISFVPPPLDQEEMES

Row | Structure (SMILES) | IC50 [µM]
1 | O=C1CCC(Sc2ccc(F)cc2F)CN1C1C(Cl)CCC(CO)C1Cl (stereo not drawn) | ≤ 10
2 | Cc1cc(C(=O)N2CCOCC2)cc(C)c1N1CC(Cc2ccc(F)cc2F)CCC1=O (stereo not drawn) | ≤ 10
3 | O=C1CCC(Cc2ccc(F)cc2)CN1C1C(Cl)CCCC1Cl (stereo not drawn) | ≤ 10
4 | O=C1CCC(Oc2ccc(F)cc2F)CN1c1c(Cl)sc(CO)c1Cl (stereo not drawn) | ≤ 10
5 | COc1ccc(CC2CN(C)C(=O)N(c3c(Cl)cccc3Cl)C2)cc1 (stereo not drawn) | ≤ 10
6 | O=C1COC(Cc2ccc3ccccc3c2)CN1c1c(Cl)cccc1Cl (stereo not drawn) | ≤ 10
7 | O=C1CCC(Sc2cc(F)cc(F)c2)CN1c1c(Cl)cncc1Cl (stereo not drawn) | ≤ 10
8 | O=C1CCC(Cc2ccc(F)cc2F)CN1c1c(Cl)cc(NCCn2ccnc2)cc1Cl (stereo not drawn) | ≤ 10
9 | OCc1ccccc1CC1CCCN(c2c(Cl)cccc2Cl)C1 (stereo not drawn) | ≤ 10
10 | O=C1NCC(Cc2ccccc2)CN1c1c(Cl)cccc1Cl (stereo not drawn) | ≤ 10
11 | Cc1ccc(SC2CCC(=O)N(c3c(Cl)ccnc3Cl)C2)c(C)c1 (stereo not drawn) | ≤ 10
12 | CNc1ncc(Cl)c(N2CC(Oc3ccc(F)cc3F)CCC2=O)c1Cl (stereo not drawn) | ≤ 10
13 | O=C1CSC(Cc2ccc(F)cc2F)CN1c1c(Cl)ccc(O)c1Cl (stereo not drawn) | ≤ 10
14 | CN1CC(Cc2ccc(F)cc2F)CN(c2c(Cl)ccc(O)c2Cl)C1=O (stereo not drawn) | ≤ 10
15 | O=C1CCC(Sc2ccccc2F)CN1C1C(Cl)CCCC1Cl (stereo not drawn) | ≤ 10
16 | Cc1cc(CCCCN(C)C)cc(C)c1N1CC(Cc2ccc(F)cc2F)CCC1=O (stereo not drawn) | ≤ 10
17 | CNC1CC(Cl)C(N2CC(Oc3ccc(F)cc3F)CCC2=O)C(Cl)C1 (stereo not drawn) | ≤ 10
18 | Nc1cc(Cl)c(N2CC(Cc3ccc(F)cc3F)CCC2=O)c(Cl)n1 (stereo not drawn) | ≤ 10
19 | CN1CC(Cc2ccc(F)cc2F)CN(c2c(Cl)ccc(NC(=O)Cc3ccccc3)c2Cl)C1=O (stereo not drawn) | ≤ 10
20 | O=C1CCC(Oc2cccc3ccccc23)CN1c1c(Cl)cncc1Cl (stereo not drawn) | ≤ 10
21 | COc1ccccc1SC1CCC(=O)N(C2C(Cl)CCCC2Cl)C1 (stereo not drawn) | ≤ 10
22 | CC(=O)NC1CCC(Cl)C(N2CC(Cc3ccc(F)cc3F)CCC2=O)C1Cl (stereo not drawn) | ≤ 10
23 | Cc1ccc(SC2CCC(=O)N(c3c(Cl)csc3Cl)C2)c(C)c1 (stereo not drawn) | ≤ 10
24 | Cc1ccc(CC2CCC(=O)N(c3c(Cl)ccnc3Cl)C2)c(C)c1 (stereo not drawn) | ≤ 10
25 | O=C1CCC(Oc2ccccc2F)CN1C1C(Cl)CCCC1Cl (stereo not drawn) | ≤ 10
26 | C[C@H]1C[C@@H](Cc2ccc(F)cc2F)CN(c2c(Cl)cccc2Cl)C1=O | ≤ 10

Row | Structure (SMILES) | IC50 [µM]
27 | C=C(c1ccc(F)cc1F)C1CCC(=O)N(c2c(Cl)cccc2Cl)C1 (stereo not drawn) | ≤ 10
28 | O=C1CCC(Sc2cccc3ccccc23)CN1C1C(Cl)CCCC1Cl (stereo not drawn) | ≤ 10
29 | NNC(=O)CNc1cc(Cl)c(N2CC(Cc3ccc(F)cc3F)CCC2=O)c(Cl)c1 (stereo not drawn) | ≤ 10
30 | COc1ccc(OC2CCC(=O)N(C3C(Cl)CCCC3Cl)C2)cc1 (stereo not drawn) | ≤ 10
31 | O=C1CCC(Cc2ccc(F)cc2F)CN1c1ccccc1CCO (stereo not drawn) | ≤ 10
32 | Cc1cccc(C)c1N1CC(Cc2ccccc2OCC(C)C)CCC1=O (stereo not drawn) | ≤ 10
33 | Nc1cc(Cl)c(N2CC(Oc3ccc(F)cc3F)CCC2=O)c(Cl)c1 (stereo not drawn) | ≤ 10
34 | O=C1CCC(Oc2ccc(F)cc2)CN1C1C(Cl)CCCC1Cl (stereo not drawn) | ≤ 10
35 | Nc1cc(Cl)c(N2CC(Cc3ccc(F)cc3F)CCC2=O)c(Cl)c1 (stereo not drawn) | ≤ 10
36 | O=C(Cc1ccccc1)Nc1cc(Cl)c(N2CC(Cc3ccc(F)cc3F)CCC2=O)c(Cl)c1 (stereo not drawn) | ≤ 10
37 | O=C1NCC(Cc2ccc(F)cc2)CN1c1c(Cl)cccc1Cl (stereo not drawn) | ≤ 10
38 | Cc1cc(C#CCN(C)C)cc(C)c1N1C[C@@H](Cc2ccc(F)cc2F)C[C@@H](C)C1=O | ≤ 10
39 | COC(=O)c1ccccc1CC1CCC(=O)N(c2c(C)cccc2C)C1 (stereo not drawn) | ≤ 10
40 | CCOC(=O)CNc1ccc(Cl)c(N2CC(Cc3ccc(F)cc3F)CCC2=O)c1 (stereo not drawn) | ≤ 10
41 | O=C1COC(Cc2cc(Cl)cc(Cl)c2)CN1c1c(Cl)cccc1Cl (stereo not drawn) | ≤ 10
42 | O=C1CSC(Cc2ccc(F)cc2F)CN1c1c(Cl)ccc(CO)c1Cl (stereo not drawn) | ≤ 10
43 | Cc1cc(CCCCCO)cc(C)c1N1CC(Cc2ccc(F)cc2F)CCC1=O (stereo not drawn) | ≤ 10
44 | O=C1CCC(Cc2ccc(F)cc2F)CN1c1c(Cl)cc([N+](=O)[O-])cc1Cl (stereo not drawn) | ≤ 10
45 | CC(=O)Nc1ccc(Cl)c(N2CC(Cc3ccc(F)cc3F)CSC2=O)c1Cl (stereo not drawn) | ≤ 10
46 | O=C1CCC(Oc2ccccc2Cl)CN1c1c(Cl)csc1Cl (stereo not drawn) | ≤ 10
47 | O=C1COC(Cc2ccccc2Cl)CN1c1c(Cl)cccc1Cl (stereo not drawn) | ≤ 10
48 | COc1ccc(CC2COC(=O)N(c3c(Cl)cccc3Cl)C2)cc1 (stereo not drawn) | ≤ 10
49 | Nc1cc(Cl)c(N2CC(Cc3ccc(F)cc3F)COC2=O)c(Cl)c1 (stereo not drawn) | ≤ 10
50 | O=C1CCC(Cc2cccc3ccccc23)CN1c1c(Cl)ccnc1Cl (stereo not drawn) | ≤ 10
51 | CN1CC(Cc2ccc3ccccc3c2)CN(c2c(Cl)cccc2Cl)C1=O (stereo not drawn) | ≤ 10

Now from value to compound:

Row | IC50 [µM] | Structure (SMILES)
52 | ≤ 10 | CC(=O)Nc1ccc(Cl)c(N2CC(Cc3ccc(F)cc3F)CCC2=O)c1Cl (stereo not drawn)
53 | ≤ 10 | COC(=O)c1cc(C)c(N2CC(Cc3ccc(F)cc3F)CCC2=O)c(Cl)c1 (stereo not drawn)
54 | ≤ 10 | O=C1CCC(C(O)c2ccc(F)cc2F)CN1c1c(Cl)cc(Br)cc1Cl (stereo not drawn)
55 | ≤ 10 | Cc1cc(C)cc(OC2CCC(=O)N(c3c(Cl)cccc3Cl)C2)c1 (stereo not drawn)
56 | ≤ 10 | O=C(Cc1ccccc1)Nc1ccc(Cl)c(N2CC(Cc3ccc(F)cc3F)SCC2=O)c1Cl (stereo not drawn)
57 | ≤ 10 | O=C1CCC(Cc2ccc(Cl)cc2Cl)CN1c1c(Cl)ccnc1Cl (stereo not drawn)
58 | ≤ 10 | O=C1CCC(Oc2ccc(F)cc2F)CN1c1c(Cl)cccc1Cl (stereo not drawn)
59 | ≤ 10 | CNC1CC(Cl)C(N2CC(Sc3ccc(F)cc3F)CCC2=O)C(Cl)C1 (stereo not drawn)
60 | ≤ 10 | O=C1CCC(Sc2ccc(F)cc2)CN1c1c(Cl)csc1Cl (stereo not drawn)
61 | ≤ 10 | O=C1CCC(Oc2cc(Cl)cc(Cl)c2)CN1C1C(Cl)CCCC1Cl (stereo not drawn)
62 | ≤ 10 | O=C(Cc1ccccc1)Nc1cc(Cl)c(N2CC(Cc3ccc(F)cc3F)SCC2=O)c(Cl)c1 (stereo not drawn)
63 | ≤ 10 | COc1ccccc1SC1CCC(=O)N(c2c(Cl)csc2Cl)C1 (stereo not drawn)
64 | ≤ 10 | O=C1NCC(Cc2ccc(F)cc2F)CN1c1c(Cl)cc(O)cc1Cl (stereo not drawn)
65 | ≤ 10 | COc1ccc(CC2CCC(=O)N(c3c(Cl)ccnc3Cl)C2)cc1 (stereo not drawn)
66 | ≤ 10 | O=C1CCC(Cc2ccc(Cl)cc2Cl)CN1c1c(Cl)csc1Cl (stereo not drawn)
67 | ≤ 10 | CCOC(=O)CCC(=O)Nc1cc(Cl)c(N2CC(Cc3ccc(F)cc3F)CCC2=O)c(Cl)c1 (stereo not drawn)
68 | ≤ 10 | Nc1ccc(Cl)c(N2CC(Cc3ccc(F)cc3F)OCC2=O)c1Cl (stereo not drawn)
69 | ≤ 10 | CNC(=O)CNc1cc(Cl)c(N2CC(Cc3ccc(F)cc3F)CCC2=O)c(Cl)c1 (stereo not drawn)
70 | ≤ 10 | O=C1CCC(Cc2ccc3ccccc3c2)CN1c1c(Cl)csc1Cl (stereo not drawn)
71 | ≤ 10 | CN(C)CCN(C(=O)OC(C)(C)C)c1cc(Cl)c(N2CC(Cc3ccc(F)cc3F)CCC2=O)c(Cl)c1 (stereo not drawn)
72 | ≤ 10 | Cc1ccc(CC2CCC(=O)N(c3c(Cl)cccc3Cl)C2)c(C)c1 (stereo not drawn)

Row | IC50 [µM] | Structure (SMILES)
73 | ≤ 10 | O=C1CCC(Oc2ccc(F)cc2F)CN1c1c(Cl)cc(O)cc1Cl (stereo not drawn)
74 | ≤ 10 | CNc1sc(Cl)c(N2CC(Oc3ccc(F)cc3F)CCC2=O)c1Cl (stereo not drawn)
75 | ≤ 10 | O=C1CCC(Sc2ccc3ccccc3c2)CN1c1c(Cl)cccc1Cl (stereo not drawn)
76 | ≤ 10 | O=C1CCC(Oc2ccc(F)cc2F)CN1C1C(Cl)CC(O)CC1Cl (stereo not drawn)
77 | ≤ 10 | COc1ccccc1OC1CCC(=O)N(c2c(Cl)ccnc2Cl)C1 (stereo not drawn)
78 | ≤ 10 | O=C1CCC(Sc2cc(Cl)cc(Cl)c2)CN1c1c(Cl)csc1Cl (stereo not drawn)
79 | ≤ 10 | O=C1CCC(Cc2ccc(F)cc2F)CN1c1c(Cl)cc(C#CCCO)cc1Cl (stereo not drawn)
80 | ≤ 10 | Cc1cc(CN)cc(C)c1N1CC(Cc2ccc(F)cc2F)CCC1=O (stereo not drawn)
81 | ≤ 10 | Cc1ccc(SC2CCC(=O)N(c3c(Cl)cccc3Cl)C2)c(C)c1 (stereo not drawn)
82 | ≤ 10 | Cc1cc(C)cc(OC2CCC(=O)N(c3c(Cl)ccnc3Cl)C2)c1 (stereo not drawn)
83 | ≤ 10 | O=C(Cc1ccccc1)Nc1ccc(Cl)c(N2CC(Cc3ccc(F)cc3F)OCC2=O)c1Cl (stereo not drawn)
84 | ≤ 10 | CNc1cc(Cl)c(N2CC(Cc3ccc(F)cc3F)OCC2=O)c(Cl)c1 (stereo not drawn)
85 | ≤ 10 | CC(=O)Nc1cc(Cl)c(N2CC(Cc3ccc(F)cc3F)CNC2=O)c(Cl)c1 (stereo not drawn)
86 | ≤ 10 | O=C1CSC(Cc2ccccc2Cl)CN1c1c(Cl)cccc1Cl (stereo not drawn)
87 | ≤ 10 | O=C1COC(Cc2ccc(F)cc2)CN1c1c(Cl)cccc1Cl (stereo not drawn)
88 | ≤ 10 | O=C1CCC(Oc2cc(Cl)cc(Cl)c2)CN1c1c(Cl)ccnc1Cl (stereo not drawn)
89 | ≤ 10 | O=C1CCC(Sc2ccc(Cl)cc2)CN1C1C(Cl)CCCC1Cl (stereo not drawn)
90 | ≤ 10 | O=C1OCC(Cc2ccc(F)cc2F)CN1c1c(Cl)ccc(CO)c1Cl (stereo not drawn)
91 | ≤ 10 | Nc1ccc(Cl)c(N2CC(Cc3ccc(F)cc3F)CCC2=O)c1 (stereo not drawn)
92 | ≤ 10 | O=C1COC(Cc2ccc(Cl)cc2)CN1c1c(Cl)cccc1Cl (stereo not drawn)
93 | ≤ 10 | O=C1CCC(Cc2ccccc2Cl)CN1c1c(Cl)ccnc1Cl (stereo not drawn)

Row | IC50 [µM] | Structure (SMILES)
94 | ≤ 10 | COC(=O)/C=C/c1cc(Cl)c(N2CC(Cc3ccc(F)cc3F)CCC2=O)c(Cl)c1 (stereo not drawn)
95 | ≤ 10 | O=C(Cc1ccccc1)Nc1ccc(Cl)c(N2CC(Cc3ccc(F)cc3F)CCC2=O)c1Cl (stereo not drawn)
96 | ≤ 10 | Cc1cc(C)cc(OC2CCC(=O)N(c3c(Cl)cncc3Cl)C2)c1 (stereo not drawn)
97 | ≤ 10 | O=C1CCC(Oc2cccc3ccccc23)CN1c1c(Cl)csc1Cl (stereo not drawn)
98 | ≤ 10 | O=C1CCC(Cc2cccc3ccccc23)CN1c1c(Cl)csc1Cl (stereo not drawn)
99 | ≤ 10 | O=C(O)/C=C/c1ccccc1CC1CCC(=O)N(c2c(Cl)cccc2Cl)C1 (stereo not drawn)
100 | ≤ 10 | O=C1CCC(Cc2cc(Cl)cc(Cl)c2)CN1C1C(Cl)CCCC1Cl (stereo not drawn)
101 | ≤ 10 | O=C1CCC(Sc2ccc(F)cc2F)CN1c1c(Cl)ccc(CO)c1Cl (stereo not drawn)
102 | ≤ 10 | O=C1CCC(Cc2ccc(F)cc2F)CN1c1cc(NCCO)ccc1Cl (stereo not drawn)
103 | ≤ 10 | O=C1CCC(Cc2ccccc2)CN1c1c(Cl)cccc1Cl (stereo not drawn)
104 | ≤ 10 | O=C1CSC(Cc2cc(F)cc(F)c2)CN1c1c(Cl)cccc1Cl (stereo not drawn)
105 | ≤ 10 | Nc1ccc(N2CC(Cc3ccc(F)cc3F)CCC2=O)c(Cl)c1 (stereo not drawn)
106 | ≤ 10 | CS(=O)(=O)NCCNc1cc(Cl)c(N2CC(Cc3ccc(F)cc3F)CCC2=O)c(Cl)c1 (stereo not drawn)
107 | ≤ 10 | Cc1ccccc1CC1CCC(=O)N(c2c(Cl)csc2Cl)C1 (stereo not drawn)
108 | ≤ 10 | Cc1ccc(CC2CCC(=O)N(c3c(Cl)cncc3Cl)C2)c(C)c1 (stereo not drawn)
109 | ≤ 10 | O=C1CCC(Oc2cc(Cl)cc(Cl)c2)CN1c1c(Cl)cccc1Cl (stereo not drawn)
110 | ≤ 10 | O=C(c1ccc(F)cc1F)C1CCC(=O)N(c2c(Cl)cccc2Cl)C1 (stereo not drawn)
111 | ≤ 10 | O=C1CCC(Cc2cccc3ccccc23)CN1c1c(Cl)cncc1Cl (stereo not drawn)
112 | ≤ 10 | Cc1cccc(C)c1N1CC(Cc2ccc(F)cc2F)CCC1=O (stereo not drawn)
113 | ≤ 10 | O=C1CCC(Oc2ccccc2Cl)CN1c1c(Cl)ccnc1Cl (stereo not drawn)
